# Test results taken from US20130053381A1, “2,4-DIOXO-1,4-DIHYDRO-2H-QUINAZOLIN-3-YL-SULFONAMIDE DERIVATIVES” (NOVARTIS AG, priority 2010, published 2013).
# Tested on: OF1 mice
# Test: Maximal electroshock test (MES Test)
# Assay type: in vivo
# Conditions: Mus musculus, po; 50 mg/kg, p.o., pre-treatment time −1 h; read-out: %-Protection
# In short: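 Compound given p.o. (typically 50 mg/kg) 1 h before tonic-clonic convulsions were induced via temporal electrodes (50 Hz, 18 mA, 0.2 s); seizure lasting 3 s or less counted as protection. Read-out is percent protected of five mice per condition; ED50 calculated, blood exposure sampled after shock.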
row,Structure (SMILES),responders at 50 mg/kg [%]
1,"CCc1cc2[nH]c(=O)n(N(C(=O)OC(C)C)S(C)(=O)=O)c(=O)c2cc1-c1ccnn1C [Example 2.12, Methanesulfonyl-[7-ethyl-6-(2-methyl-2H-pyrazol-3-yl)-2,4-dioxo-1,4-dihydro-2H-quinazolin-3-yl]-carbamic acid isopropyl ester]",60
2,"CCCCCC(=O)N(n1c(=O)[nH]c2cc(C(C)C)c(-c3ccnn3C)cc2c1=O)S(C)(=O)=O [Example 3.14, N-Hexanoyl-N-[7-isopropyl-6-(2-methyl-2H-pyrazol-3-yl)-2,4-dioxo-1,4-dihydro-2H-quinazolin-3-yl]-methanesulfonamide]",100
3,"CC(=O)N(n1c(=O)c2cc(-c3ccnn3C)c(C(C)C)cc2n(C(C)=O)c1=O)S(C)(=O)=O [Example 3.24, N-Acetyl-N-[1-acetyl-7-isopropyl-6-(2-methyl-2H-pyrazol-3-yl)-2,4-dioxo-1,4-dihydro-2H-quinazolin-3-yl]-methanesulfonamide]",100
4,"COCCOC(=O)N(n1c(=O)[nH]c2cc(C(F)(F)F)c(-c3ccnn3C(C)C)cc2c1=O)S(C)(=O)=O [Example 5.10, [6-(2-Isopropyl-2H-pyrazol-3-yl)-2,4-dioxo-7-trifluoromethyl-1,4-dihydro-2H-quinazolin-3-yl]-methanesulfonyl-carbamic acid 2-methoxy-ethyl ester]",20
5,"CCC(=O)N(n1c(=O)[nH]c2cc(CC)c(-c3ccnn3CC)cc2c1=O)S(C)(=O)=O [Example 13.03, N-[7-Ethyl-6-(2-ethyl-2H-pyrazol-3-yl)-2,4-dioxo-1,4-dihydro-2H-quinazolin-3-yl]-N-propionyl-methanesulfonamide]",20
6,"CCC(=O)N(n1c(=O)[nH]c2cc(C(F)(F)F)c(-c3ccnn3C(C)C)cc2c1=O)S(C)(=O)=O [Example 5.02, N-[6-(2-Isopropyl-2H-pyrazol-3-yl)-2,4-dioxo-7-trifluoromethyl-1,4-dihydro-2H-quinazolin-3-yl]-N-propionyl-methanesulfonamide]",20
7,"CCCOC(=O)N(n1c(=O)[nH]c2cc(C(C)C)c(-c3ccnn3C)cc2c1=O)S(C)(=O)=O [Example 3.20, [7-Isopropyl-6-(2-methyl-2H-pyrazol-3-yl)-2,4-dioxo-1,4-dihydro-2H-quinazolin-3-yl]-methanesulfonyl-carbamic acid propyl ester]",100
8,"CCCC(=O)N(n1c(=O)[nH]c2cc(C(F)(F)F)c(C(CC)OC)cc2c1=O)S(C)(=O)=O (stereo not shown) [Example 11.07, N-Butyryl-N-[6-(1-methoxy-propyl)-2,4-dioxo-7-trifluoromethyl-1,4-dihydro-2H-quinazolin-3-yl]-methanesulfonamide]",100
9,"CCc1cc2[nH]c(=O)n(N(C(=O)OCC(C)C)S(C)(=O)=O)c(=O)c2cc1-c1ccnn1CC [Example 13.01, Methanesulfonyl-[7-ethyl-6-(2-ethyl-2H-pyrazol-3-yl)-2,4-dioxo-1,4-dihydro-2H-quinazolin-3-yl]carbamic acid isobutyl ester]",20
10,"CCC(OC)c1cc2c(=O)n(N(C(=O)OC)S(C)(=O)=O)c(=O)[nH]c2cc1C(F)(F)F (stereo not shown) [Example 11.09, Methanesulfonyl-[6-(1-methoxy-propyl)-2,4-dioxo-7-trifluoromethyl-1,4-dihydro-2H-quinazolin-3-yl]-carbamic acid methyl ester]",80
11,"CCOC(=O)N(n1c(=O)[nH]c2cc(C(F)(F)F)c(-n3cccc3)cc2c1=O)S(C)(=O)=O [Example 8.05, (2,4-Dioxo-6-pyrrol-1-yl-7-trifluoromethyl-1,4-dihydro-2H-quinazolin-3-yl)-methanesulfonyl-carbamic acid ethyl ester]",60
12,"COCCOC(=O)N(n1c(=O)[nH]c2cc(C(F)(F)F)c(-c3ccnn3C)cc2c1=O)S(C)(=O)=O [Example 1.07, Methanesulfonyl-[6-(2-methyl-2H-pyrazol-3-yl)-2,4-dioxo-7-trifluoromethyl-1,4-dihydro-2H-quinazolin-3-yl]-carbamic acid 2-methoxy-ethyl ester]",80
13,"CCn1nccc1-c1cc2c(=O)n(N(C(=O)COC(C)=O)S(C)(=O)=O)c(=O)[nH]c2cc1C(F)F [Example 14.01, Acetic acid 2-{[7-difluoromethyl-6-(2-ethyl-2H-pyrazol-3-yl)-2,4-dioxo-1,4-dihydro-2H-quinazolin-3-yl]-methanesulfonyl-amino}-2-oxo-ethyl ester]",20
14,"CCCCOC(=O)N(n1c(=O)[nH]c2cc(CC)c(-c3ccnn3C)cc2c1=O)S(C)(=O)=O [Example 2.09, Methanesulfonyl-[7-ethyl-6-(2-methyl-2H-pyrazol-3-yl)-2,4-dioxo-1,4-dihydro-2H-quinazolin-3-yl]-carbamic acid butyl ester]",40
15,"CCCCCC(=O)N(n1c(=O)[nH]c2cc(C(F)(F)F)c(-n3ccnc3)cc2c1=O)S(C)(=O)=O [Example 4.08, N-Hexanoyl-N-(6-imidazol-1-yl-2,4-dioxo-7-trifluoromethyl-1,4-dihydro-2H-quinazolin-3-yl)-methanesulfonamide]",20
16,"CCCC(=O)N(n1c(=O)[nH]c2cc(C(F)(F)F)c(C(O)CC)cc2c1=O)S(C)(=O)=O (stereo not shown) [Example 12.03, N-Butyryl-N-[6-(1-hydroxy-propyl)-2,4-dioxo-7-trifluoromethyl-1,4-dihydro-2H-quinazolin-3-yl]-methanesulfonamide]",40
17,"CCCC(=O)N(n1c(=O)[nH]c2cc(C(C)C)c(-c3ccnn3C)cc2c1=O)S(C)(=O)=O [Example 3.13, N-Butyryl-N-[7-isopropyl-6-(2-methyl-2H-pyrazol-3-yl)-2,4-dioxo-1,4-dihydro-2H-quinazolin-3-yl]-methanesulfonamide]",100
18,"CCOC(=O)N(n1c(=O)[nH]c2cc(C(F)F)c(-c3ccnn3C(C)C)cc2c1=O)S(C)(=O)=O [Example 6.06, [7-Difluoromethyl-6-(2-isopropyl-2H-pyrazol-3-yl)-2,4-dioxo-1,4-dihydro-2H-quinazolin-3-yl]-methanesulfonyl-carbamic acid ethyl ester]",60

# Same assay, conditions: Mus musculus, po; 50 mg/kg, p.o., pre-treatment time −2 h (footnote a); read-out: %-Protection
row,Structure (SMILES),responders at 50 mg/kg [%]
1,"CCCC(=O)N(n1c(=O)[nH]c2cc(C(F)(F)F)c(-n3cnnc3)cc2c1=O)S(C)(=O)=O [Example 9.04, N-Butyryl-N-(2,4-dioxo-6-[1,2,4]triazol-4-yl-7-trifluoromethyl-1,4-dihydro-2H-quinazolin-3-yl)-methanesulfonamide]",20

# Same assay, conditions: Mus musculus, po; Dose: 15 mg/kg, p.o. (footnote c), pre-treatment time −1 h; read-out: %-Protection
row,Structure (SMILES),responders at 15 mg/kg [%]
1,"CCCCC(=O)N(n1c(=O)[nH]c2cc(C(C)C)c(-c3ccnn3C)cc2c1=O)S(C)(=O)=O [Example 3.09, N-[7-Isopropyl-6-(2-methyl-2H-pyrazol-3-yl)-2,4-dioxo-1,4-dihydro-2H-quinazolin-3-yl]-N-pentanoyl-methanesulfonamide]",100

# Same assay, conditions: Mus musculus, po; Dose: 25 mg/kg, p.o. (footnote b), pre-treatment time −1 h; read-out: %-Protection
row,Structure (SMILES),responders at 25 mg/kg [%]
1,"CCc1cc2[nH]c(=O)n(N(C(=O)OCCOC)S(C)(=O)=O)c(=O)c2cc1-c1ccnn1C [Example 2.05, Methanesulfonyl-[7-ethyl-6-(2-methyl-2H-pyrazol-3-yl)-2,4-dioxo-1,4-dihydro-2H-quinazolin-3-yl]-carbamic acid 2-methoxy-ethyl ester]",80
2,"CCOC(=O)N(n1c(=O)[nH]c2cc(C(F)F)c(-c3ccnn3C(C)C)cc2c1=O)S(C)(=O)=O [Example 6.06, [7-Difluoromethyl-6-(2-isopropyl-2H-pyrazol-3-yl)-2,4-dioxo-1,4-dihydro-2H-quinazolin-3-yl]-methanesulfonyl-carbamic acid ethyl ester]",20

# Same assay, conditions: Mus musculus, po; Table 5; 50 mg/kg, p.o., pre-treatment time −0.25 h; read-out: %-Protection
row,Structure (SMILES),responders at 50 mg/kg [%]
1,"CC(=O)N(n1c(=O)c2cc(-c3ccnn3C)c(C(C)C)cc2n(C(C)=O)c1=O)S(C)(=O)=O [Example 3.24, N-Acetyl-N-[1-acetyl-7-isopropyl-6-(2-methyl-2H-pyrazol-3-yl)-2,4-dioxo-1,4-dihydro-2H-quinazolin-3-yl]-methanesulfonamide]",100

# Same assay, conditions: Mus musculus, po; Table 5; 50 mg/kg, p.o., pre-treatment time −0.5 h; read-out: %-Protection
row,Structure (SMILES),responders at 50 mg/kg [%]
1,"CC(=O)N(n1c(=O)c2cc(-c3ccnn3C)c(C(C)C)cc2n(C(C)=O)c1=O)S(C)(=O)=O [Example 3.24, N-Acetyl-N-[1-acetyl-7-isopropyl-6-(2-methyl-2H-pyrazol-3-yl)-2,4-dioxo-1,4-dihydro-2H-quinazolin-3-yl]-methanesulfonamide]",100

# Same assay, conditions: Mus musculus; dose of up to 50 mg/kg, p.o., 1 hour prior to induction of convulsions; read-out: %-Protection
row,Structure (SMILES),responders at 50 mg/kg [%]
1,"CCc1cc2[nH]c(=O)n(N(C(=O)OCCOC)S(C)(=O)=O)c(=O)c2cc1-c1ccnn1CC [Methanesulfonyl-[7-ethyl-6-(2-ethyl-2H-pyrazol-3-yl)-2,4-dioxo-1,4-dihydro-2H-quinazolin-3-yl]carbamic acid 2-methoxy-ethyl ester]",0
2,"CC(C)C(=O)N(n1c(=O)[nH]c2cc(C(F)F)c(-c3ccnn3C(C)C)cc2c1=O)S(C)(=O)=O [N-[7-Difluoromethyl-6-(2-isopropyl-2H-pyrazol-3-yl)-2,4-dioxo-1,4-dihydro-2H-quinazolin-3-yl]-N-isobutyryl-methanesulfonamide]",0
3,"CC(C)C(=O)N(n1c(=O)[nH]c2cc(C(F)(F)F)c([C@H]3CCCO3)cc2c1=O)S(C)(=O)=O [N—((R)-2,4-Dioxo-6-tetrahydro-furan-2-yl-7-trifluoromethyl-1,4-dihydro-2H-quinazolin-3-yl)-N-isobutyryl-methanesulfonamide]",0
4,"CCCCOC(=O)N(n1c(=O)[nH]c2cc(C(F)F)c(-c3ccnn3C(C)C)cc2c1=O)S(C)(=O)=O [[7-Difluoromethyl-6-(2-isopropyl-2H-pyrazol-3-yl)-2,4-dioxo-1,4-dihydro-2H-quinazolin-3-yl]-methanesulfonyl-carbamic acid butyl ester]",0
5,"CCCOC(=O)N(n1c(=O)[nH]c2cc(C(F)(F)F)c([C@H]3CCCO3)cc2c1=O)S(C)(=O)=O [Methanesulfonyl-[(R)-2,4-Dioxo-6-tetrahydro-furan-2-yl-7-trifluoromethyl-1,4-dihydro-2H-quinazolin-3-yl]carbamic acid propyl ester]",0
6,"CCCCCC(=O)N(n1c(=O)[nH]c2cc(C(F)F)c(-c3ccnn3C(C)C)cc2c1=O)S(C)(=O)=O [N-[7-Difluoromethyl-6-(2-isopropyl-2H-pyrazol-3-yl)-2,4-dioxo-1,4-dihydro-2H-quinazolin-3-yl]-N-hexanoyl-methanesulfonamide]",0

# Same assay, conditions: Table 5; 50 mg/kg, p.o., pre-treatment time −1 h
row,Structure (SMILES),%-Protection [%]
1,"CC(=O)N(n1c(=O)c2cc(-c3ccnn3C)c(C(C)C)cc2n(C(C)=O)c1=O)S(C)(=O)=O [Example 3.24, N-Acetyl-N-[1-acetyl-7-isopropyl-6-(2-methyl-2H-pyrazol-3-yl)-2,4-dioxo-1,4-dihydro-2H-quinazolin-3-yl]-methanesulfonamide]",100
